Test results published in patent EP0260606A2, “Medicament for curing neurotic disturbance or disorder comprising sialocylglycerolipid” (MECT CORPORATION, priority 1986, dated 1988).
Several values for one entry are separate records, joined by “and”; a condition that tells them apart may be missing. Equal values may be shown once. Marks after values point to notes of the source that are not given here.

Key:
[1] = system: rat having its nigral depaminergic neuron destroyed; assay: Methamphethamine-induced rotational movement after 6-hydroxydopamine lesion and fetal dopaminergic cell transplantation; type: in vivo; conditions: for Average of Rotational Movement of Rats (Average + S.D.): group average; for Average of Rotational Movement of Rats (Average + S.D.) / Number of Rotational Movement of Rats: 30 mg/kg; for Number of Rotational Movement of Rats: individual rat, 30 mg/kg every day for two weeks from transplantation; for remedy of motor disturbance: result in words
Excerpt: The nigral dopaminergic neuron of the brain of a rat was chemically destroyed by injecting a very small quantity of 6-hydroxydopamine to cause motor disturbance.
After the lapse of two weeks, a fetal brain dopaminergic cell was transplanted on the Nucleus caudatus of the rat brain to try to remedy the motor disturbance.
The nigral depaminergic neuron at the left side of the brain of a female Wister family rat aged 4-weeks (Body Weight: l00 g) was destroyed by injecting a very small quantity of 6-hydroxydopamine.
After two weeks from the destruction by the administration of the drug, portions of the […] containing dopamin cells (i.e. substantia nigra and the Tegmentum at the abdomen side) were extracted from the fetal rat brain of a fetal rat of l4 to l7 days age, cut finely, and treated with trypsin. Then, the extracted tissues were incubated at 37°C for 30 minutes, and the tissues were subjected to pipetting to form a suspension. 5 µl each of the suspensions were transplanted on two sites of the Nucleus caudatus of the destructed side, the total of l0 µl (containing about l0⁵ cells) being transplanted.
The rotational movements caused by administration of methamphethamine were examined at the time point before 2 weeks of the transplantation (- 2W), at the time point before one week of the transplantation (- lW) and at the time point after two weeks of the transplantation (2W). The number of rotational movements within one minute were counted at l0 minute intervals after six administrations of methamphethamine, and the total number of rotational movements counted for the six times was averaged to find the mean rotational movement. As controls, the numbers of rotational movements of the rats administered, respectively, with a ganglioside mixture and GM₁ ganglioside were counted.

[2] = system: Mice Having Their Nerves Damaged by Mercurialism; assay: T-shaped labyrinth learning and memory in mice damaged by methylmercuric chloride; type: in vivo; conditions: for number of mice that reached the standard / number of mice subjected to test: 40 mg/kg,i.p./day for 10 days after MMC 6 mg/kg/day; for average time required for running into the safety area: 40 mg/kg,i.p./day after MMC, average ± S.D.
Protocol: Male Balb/c mice of 7-weeks age were pre-trained in a T-shaped labylinth 3 times a week so that they learned to go straight from the starting area to the safety area. Then, a group of mice was orally administered methylmercuric chloride (hereinafter referred to as MMC) at a dose of 6 mg/kg/day for 7 days after the mice had reached 8-weeks age. A control group of mice was administered 0.l ml/l0 g/day of saline. The day after the completion of administration of MMC, the compound (I) of the invention was intraperitoneally administered at a dose of 40 mg/kg/day for l0 days. From the 23rd day, the training in the T-shape labylinth was restarted, and the running actions of the mice were observed. At the 7th day (29th day from the beginning of the experiment) and 8th day (30th day from the beginning of the experiment) from the re-starting of the training, the number of mice of each group, that could be subjected to test, was counted; and the number of mice that reached the standard (running into the safety area within 5 seconds) for 8 or more times per ten times trials was counted. In the following Table 6, the number of mice subjected to test is shown as the denominator, and the number of mice that reached the standard is shown as the numerator. Meanwhile, the decrease in number of mice was caused by death due to poisoning from MMC. Also shown in Table 6 are the average times (second) ± S.D. […] required for running into the safety area.

[3] = - 1W (before transplantation and dosing)
[4] = - 2W (before transplantation and dosing)

Structure (SMILES): CCCCCCCCCCCCCCOCC(COC1(C(=O)O)CC(O)C(NC(C)=O)C(C(O)C(O)CO)O1)OCCCCCCCCCCCCCC (stereo not shown) [Compound (I)]
- Average of Rotational Movement of Rats (Average + S.D.) ([1]; 2W after transplantation): 2.8+4.0*
- Average of Rotational Movement of Rats (Average + S.D.) [1, 3]: 12.3+3.8
- Average of Rotational Movement of Rats (Average + S.D.) [1, 4]: 8.2+3.2
- Number of Rotational Movement of Rats ([1]; 2W after transplantation): 5.3 and 3.2 and 5.8
- Number of Rotational Movement of Rats [1, 3]: 17.4 and 12.2 and 8.4 and 11.0
- Number of Rotational Movement of Rats [1, 4]: 12.2 and 5.8 and 5.4 and 9.5
- remedy of motor disturbance [1]: effect of promoting the remedy of motor disturbance similar to the ganglioside mixtures
- remedy of motor disturbance ([1]; listed as compound (I)): had a function of remedying the nerves similar to gangliosides
- number of mice that reached the standard / number of mice subjected to test ([2]; 7th Day of re-started training, standard: safety area within 5 seconds in 8 or more of ten trials): 4/6
- average time required for running into the safety area ([2]; 7th Day): 2.5 ± 0.8 s
- number of mice that reached the standard / number of mice subjected to test ([2]; 8th Day of re-started training): 5/6
- average time required for running into the safety area ([2]; 8th Day): 3.1 ± 0.7 s
- remedy and restoration of learning and memory ability ([2]; result in words): had the effect of remedying and restoring the learning and memory ability
